This is an account of results in patent publication US5753673A, “Quinolinecarboxylic acid derivatives” (Taisho Pharmaceutical Co., Ltd., priority 1994, dated 1998).

Structures can show the parent of a compound that is named as a salt. Where two headings read alike, the source gives them in different places.

This assay deals with T1, serotonin 4 receptor (5-HT4) (Cavia porcellus, UniProt O70528).
T1 construct: from tissue; host or cells: longitudinal muscle strips of guinea pig ileum (Harley guinea pigs)
Nature of the assay: Stimulating activity on serotonin 4 receptor (twitch response in guinea pig ileum). It counts as cell-based. The protocol:
Stimulating activity on serotonin 4 receptor
From Harley guinea pigs weighing 250 to 400 g, a section of ileum 10 to 20 cm proximal to the ileocecal junction was removed. Longitudinal muscle strips obtained from the ileum were used for this assay. The preparations were suspended in Krebs' solution at 32 to 34° C., bubbled continuously with 95% O2 and 5% CO2, and subjected to initial tension of about 0.8 g. Responses were recorded isometrically. Twitch responses were evoked by electrical stimulation (0.2 Hz, 1 msec pulse duration). The preparations were stimulated at supramaximal voltage for 2 to 3 hours, and were then allowed to equilibrate for about 1 hour at submaximal voltage. […] The preparations were left for at least 45 minutes before cumulative addition of each agonist.
The quinolinecarboxylic acid derivatives of the present invention were employed as sample compounds. For comparison, the following compounds were employed. These compounds were diluted by dissolving them in distilled water or in DMSO.
The data obtained was analyzed by RS1 (BBN Software Product Co.).

Where [1] appears, read: twitch response in guinea pig ileum, maximum contraction of sample compound = 100%, read-out: ED50 (concentration enhancing the twitch response by 50%).

T1 sequence (O70528 whole entry): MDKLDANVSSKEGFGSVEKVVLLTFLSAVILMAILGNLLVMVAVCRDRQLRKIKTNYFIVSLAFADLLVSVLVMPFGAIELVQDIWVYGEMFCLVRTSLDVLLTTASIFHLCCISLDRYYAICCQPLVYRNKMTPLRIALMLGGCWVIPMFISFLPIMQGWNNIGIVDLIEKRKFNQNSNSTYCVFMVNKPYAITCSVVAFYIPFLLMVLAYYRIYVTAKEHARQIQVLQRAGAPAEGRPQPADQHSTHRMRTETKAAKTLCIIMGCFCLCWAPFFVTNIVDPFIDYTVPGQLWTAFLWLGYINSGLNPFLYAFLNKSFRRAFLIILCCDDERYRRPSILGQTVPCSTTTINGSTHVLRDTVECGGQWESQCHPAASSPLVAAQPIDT

For the molecule `CN1[C@@H]2CC[C@H]1C[C@@H](NC(=O)c1cc3ccccc3[nH]c1=O)C2` [Comparative Compound 2, reference compound], the EC50 under setting [1] is over 3000 nM.
Regarding `CN1[C@@H]2CC[C@H]1C[C@@H](OC(=O)c1cc3ccccc3[nH]c1=O)C2` [Comparative Compound 3, reference compound], the EC50 under setting [1] is over 3000 nM.
For `CCCCn1c(=O)c(C(=O)N[C@H]2C[C@H]3CC[C@@H](C2)N3C)c(O)c2ccccc21` [Comparative Compound 4, reference compound], the EC50 under setting [1] was over 3000 nM.
As to `C=CCN1C2CCC1CC(NC(=O)c1cc3ccccc3n(C(C)C)c1=O)C2` (stereo not drawn) [Compound 1, endo-N-(8-(2-propenyl)-8-azabicyclo[3.2.1]oct-3-yl)-1-isopropyl-2-oxo-1,2-dihydro-3-quinolinecarboxamide], the EC50 was found to be 59.2 nM.
Molecule `CC(C)n1c(=O)c(C(=O)NC2CC3CCC(C2)N3CCO)cc2ccccc21` (stereo not drawn) [Compound 4, Endo-N-(8-(2-hydroxyethyl)-8-azabicyclo[3.2.1]oct-3-yl)-1-isopropyl-2-oxo-1,2-dihydro-3-quinolinecarboxamide] came in with an EC50 of 45.9 nM.
In turn, `CC(C)n1c(=O)c(C(=O)NC2CC3CCC(C2)N3CCCCO)cc2ccccc21` (stereo not drawn) [Compound 6, Endo-N-(8-(4-hydroxybutyl)-8-azabicyclo[3.2.1]oct-3-yl)-1-isopropyl-2-oxo-1,2-dihydro-3-quinolinecarboxamide] returned an EC50 of 38.5 nM.
On the same count and under the same terms, with `CC(C)n1c(=O)c(C(=O)NC2CC3CCC(C2)N3CCCCCO)cc2ccccc21` (stereo not drawn) [Compound 7, Endo-N-(8-(5-hydroxypentyl)-8-azabicyclo[3.2.1]oct-3-yl)-1-isopropyl-2-oxo-1,2-dihydro-3-quinolinecarboxamide] the figure was 30.8 nM; with `CC(C)n1c(=O)c(C(=O)NC2CC3CCC(C2)N3CCCCCCO)cc2ccccc21` (stereo not drawn) [Compound 8, Endo-N-(8-(6-hydroxyhexyl)-8-azabicyclo[3.2.1]oct-3-yl)-1-isopropyl-2-oxo-1,2-dihydro-3-quinolinecarboxamide hydrochloride], 62.3 nM; with `CC(=O)OCCCCCN1C2CCC1CC(NC(=O)c1cc3ccccc3n(C(C)C)c1=O)C2` (stereo not drawn) [Compound 9, Endo-N-(8-(5-acetoxypentyl)-8-azabicyclo[3.2.1]oct-3-yl)-1-isopropyl-2-oxo-1,2-dihydro-3-quinolinecarboxamide hydrochloride], 33 nM.
Regarding `CSCCN1C2CCC1CC(NC(=O)c1cc3ccccc3n(C(C)C)c1=O)C2` (stereo not drawn) [Compound 17, Endo-N-(8-(2-(methylthio)ethyl)-8-azabicyclo[3.2.1]oct-3-yl)-1-isopropyl-2-oxo-1,2-dihydro-3-quinolinecarboxamide], the EC50 was 48 nM.
In turn, `CC(C)n1c(=O)c(C(=O)NC2CC3CCC(C2)N3CCS(=O)(=O)c2ccccc2)cc2ccccc21` (stereo not drawn) [Compound 19, Endo-N-(8-(2-(phenylsulfonyl)ethyl)-8-azabicyclo[3.2.1]oct-3-yl)-1-isopropyl-2-oxo-1,2-dihydro-3-quinolinecarboxamide] gave an EC50 of 86.6 nM.
Same read-out and setting: with `CC(C)n1c(=O)c(C(=O)NC2CC3CCC(C2)N3CC2CCCCO2)cc2ccccc21` (stereo not drawn) [Compound 22, Endo-N-(8-(tetrahydropyran-2-methyl)-8-azabicyclo[3.2.1]oct-3-yl)-1-isopropyl-2-oxo-1,2-dihydro-3-quinolinecarboxamide] the figure was 24 nM; with `CC(C)n1c(=O)c(C(=O)NC2CC3CCC(C2)N3CC(=O)O)cc2ccccc21` (stereo not drawn) [Compound 26, Endo-N-(8-(carboxymethyl)-8-azabicyclo[3.2.1]oct-3-yl)-1-isopropyl-2-oxo-1,2-dihydro-3-quinolinecarboxamide], 66.1 nM; with `CCOC(=O)CCCN1C2CCC1CC(NC(=O)c1cc3ccccc3n(C(C)C)c1=O)C2` (stereo not drawn) [Compound 27, Endo-N-(8-(3-(ethoxycarbonyl)propyl)-8-azabicyclo[3.2.1]oct-3-yl)-1-isopropyl-2-oxo-1,2-dihydro-3-quinolinecarboxamide hydrochloride], 19.3 nM.
Same read-out and setting: with `CC(C)n1c(=O)c(C(=O)NC2CC3CCC(C2)N3CCCC(=O)O)cc2ccccc21` (stereo not drawn) [Compound 28, Endo-N-(8-(3-carboxypropyl)-8-azabicyclo[3.2.1]oct-3-yl)-1-isopropyl-2-oxo-1,2-dihydro-3-quinolinecarboxamide] the figure was 91.4 nM.
For `CC(=O)CN1C2CCC1CC(NC(=O)c1cc3ccccc3n(C(C)C)c1=O)C2` (stereo not drawn) [Compound 30, Endo-N-(8-(2-oxopropyl)-8-azabicyclo[3.2.1]oct-3-yl)-1-isopropyl-2-oxo-1,2-dihydro-3-quinolinecarboxamide hydrochloride], the EC50 is 11.5 nM.
Same read-out and setting: with `CC(=O)CCCN1C2CCC1CC(NC(=O)c1cc3ccccc3n(C(C)C)c1=O)C2` (stereo not drawn) [Compound 31, Endo-N-(8-(4-oxopentyl)-8-azabicyclo[3.2.1]oct-3-yl)-1-isopropyl-2-oxo-1,2-dihydro-3-quinolinecarboxamide] the figure was 52.3 nM; with `CC(C)n1c(=O)c(C(=O)NC2CC3CCC(C2)N3CCC#N)cc2ccccc21` (stereo not drawn) [Compound 33, Endo-N-(8-(2-cyanoethyl)-8-azabicyclo[3.2.1]oct-3-yl)-1-isopropyl-2-oxo-1,2-dihydro-3-quinolinecarboxamide], 35.8 nM.
Molecule `CC(C)n1c(=O)c(C(=O)NC2CC3CCC(C2)N3CC(N)=O)cc2ccccc21` (stereo not drawn) [Compound 34, Endo-N-(8-carbamoylmethyl-8-azabicyclo[3.2.1]oct-3-yl)-1-isopropyl-2-oxo-1,2-dihydro-3-quinolinecarboxamide] displayed an EC50 of 61.9 nM.
For the molecule `C=CCN1C2CCC1CC(OC(=O)c1cc3ccccc3n(C(C)C)c1=O)C2` (stereo not drawn) [Compound 35, endo-8-(2-propenyl)-8-azabicyclo[3.2.1]oct-3-yl 1-isopropyl-2-oxo-1,2-dihydro-3-quinolinecarboxylate hydrochloride], the EC50 was determined as 54.4 nM.
With `CC(C)n1c(=O)c(C(=O)OC2CC3CCC(C2)N3CCO)cc2ccccc21` (stereo not drawn) [Compound 37, Endo-8-(2-hydroxyethyl)-8-azabicyclo[3.2.1]oct-3-yl 1-isopropyl-2-oxo-1,2-dihydro-3-quinolinecarboxylate hydrochloride], the EC50 amounted to 16.1 nM.
Molecule `CC(C)n1c(=O)c(C(=O)OC2CC3CCC(C2)N3CCCO)cc2ccccc21` (stereo not drawn) [Compound 38, Endo-8-(3-hydroxypropyl)-8-azabicyclo[3.2.1]oct-3-yl 1-isopropyl-2-oxo-1,2-dihydro-3-quinolinecarboxylate] displayed an EC50 of 11.9 nM.
Consider `CC(C)n1c(=O)c(C(=O)OC2CC3CCC(C2)N3CCCCO)cc2ccccc21` (stereo not drawn) [Compound 39, Endo-8-(4-hydroxybutyl)-8-azabicyclo[3.2.1]oct-3-yl 1-isopropyl-2-oxo-1,2-dihydro-3-quinolinecarboxylate hydrochloride], for which the EC50 was found to be 16.6 nM.
`CC(C)n1c(=O)c(C(=O)OC2CC3CCC(C2)N3CCCCCO)cc2ccccc21` (stereo not drawn) [Compound 40, Endo-8-(5-hydroxypentyl)-8-azabicyclo[3.2.1]oct-3-yl 1-isopropyl-2-oxo-1,2-dihydro-3-quinolinecarboxylate hydrochloride] registered an EC50 of 25.5 nM.
As to `CC(C)n1c(=O)c(C(=O)O[C@H]2C[C@H]3CC[C@@H](C2)N3CCCCCCO)cc2ccccc21` [Compound 41, Endo-8-(6-hydroxyhexyl)-8-azabicyclo[3.2.1]oct-3-yl 1-isopropyl-2-oxo-1,2-dihydro-3-quinolinecarboxylate hydrochloride], the EC50 came to 50.9 nM.
`COCCN1[C@@H]2CC[C@H]1C[C@@H](OC(=O)c1cc3ccccc3n(C(C)C)c1=O)C2` [Compound 42, Endo-8-(2-methoxyethyl)-8-azabicyclo[3.2.1]oct-3-yl 1-isopropyl-2-oxo-1,2-dihydro-3-quinolinecarboxylate hydrochloride] gave an EC50 of 18.4 nM.
Molecule `CCOCCN1[C@@H]2CC[C@H]1C[C@@H](OC(=O)c1cc3ccccc3n(C(C)C)c1=O)C2` [Compound 43, Endo-8-(2-ethoxyethyl)-8-azabicyclo[3.2.1]oct-3-yl 1-isopropyl-2-oxo-1,2-dihydro-3-quinolinecarboxylate hydrochloride] gave an EC50 of 15.2 nM.
In the case of `CCN(CC)CCN1[C@@H]2CC[C@H]1C[C@@H](OC(=O)c1cc3ccccc3n(C(C)C)c1=O)C2` [Compound 44, Endo-8-(2-diethylaminoethyl)-8-azabicyclo[3.2.1]oct-3-yl 1-isopropyl-2-oxo-1,2-dihydro-3-quinolinecarboxylate dihydrochloride], the EC50 stood at 72.6 nM.
Still for that read-out and setting: the same measure for `CSCCN1[C@@H]2CC[C@H]1C[C@@H](OC(=O)c1cc3ccccc3n(C(C)C)c1=O)C2` [Compound 45, Endo-8-(2-(methylthio)ethyl)-8-azabicyclo[3.2.1]oct-3-yl 1-isopropyl-2-oxo-1,2-dihydro-3-quinolinecarboxylate]: 29.5 nM; for `CC(C)n1c(=O)c(C(=O)O[C@H]2C[C@H]3CC[C@@H](C2)N3CCS(=O)(=O)c2ccccc2)cc2ccccc21` [Compound 46, Endo-8-(2-(phenylsulfonyl)ethyl)-8-azabicyclo[3.2.1]oct-3-yl 1-isopropyl-2-oxo-1,2-dihydro-3-quinolinecarboxylate]: 46.5 nM; for `CC(C)n1c(=O)c(C(=O)O[C@H]2C[C@H]3CC[C@@H](C2)N3CCN2CCOCC2)cc2ccccc21` [Compound 47, Endo-8-(2-morpholinoethyl)-8-azabicyclo[3.2.1]oct-3-yl 1-isopropyl-2-oxo-1,2-dihydro-3-quinoline-carboxylate dihydrochloride]: 30.8 nM.
